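Five concentrations, 48 hours, 96-well plates. Abbreviation: GI50, concentration required for 50% inhibition of growth. TGI denotes the concentration required for complete inhibition of growth.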 Where a SMILES comes first, the peptide text is derived from it. [ ]: non-standard residue; d: D form. The star is where a group is joined. ξ: configuration not given here. ξF = NC(Cc1ccccc1)C(=O)O; Cbz = O=C(OCc1ccccc1)*; Aib = CC(C)(N)C(=O)O
How the values were obtained:
Assay in all cases: DTP human tumour cell line panel, 48 h
MDA-MB-231 breast = system: MDA-MB-231 breast
HOP-92 NSCLC = system: HOP-92 NSCLC
HS 578T breast = system: HS 578T breast
MDA-MB-435 = system: MDA-MB-435
SR leukemia = system: SR leukemia
LOX IMVI melanoma = system: LOX IMVI melanoma
DU-145 prostate = system: DU-145 prostate
HL-60(TB) leukemia = system: HL-60(TB) leukemia
KM20L2 colon = system: KM20L2 colon
M19-MEL melanoma = system: M19-MEL melanoma
DMS 273 small cell lung = system: DMS 273 small cell lung
SNB-78 CNS = system: SNB-78 CNS

SMILES | TGI (MDA-MB-231 breast) [µM] | TGI (HOP-92 NSCLC) [µM] | TGI (HS 578T breast) [µM] | TGI (MDA-MB-435) [µM] | TGI (SR leukemia) [µM] | TGI (LOX IMVI melanoma) [µM] | TGI (DU-145 prostate) [µM] | GI50 (MDA-MB-231 breast) [nM] | GI50 (HS 578T breast) [nM] | GI50 (MDA-MB-435) [µM] | GI50 (SR leukemia) [nM] | GI50 (LOX IMVI melanoma) [nM] | GI50 (HL-60(TB) leukemia) [µM] | TGI (HL-60(TB) leukemia) [µM] | GI50 (DU-145 prostate) [nM] | GI50 (HOP-92 NSCLC) [nM] | TGI (KM20L2 colon) [µM] | TGI (M19-MEL melanoma) [µM] | TGI (DMS 273 small cell lung) [µM] | TGI (SNB-78 CNS) [µM]
NCCSCc1ccccc1Cl | > 100 | > 100 | > 100 | > 100 | 55.7 | 66.1 | > 100 | – | – | – | – | – | – | – | – | – | – | – | – | –
COc1cc(-c2n/c(=C\c3c(O)[nH]c4cc(Cl)ccc34)cc3c2=Nc2ccccc2-3)cc(OC)c1OC | 11.3 | – | 19 | 51.3 | 6.35 | 16 | 7.52 | 3170 | 2510 | 6.39 | 2380 | 2760 | 84.4 | > 100 | 2570 | – | – | – | – | –
CCOc1ccc(N=NS(=O)(=O)O)cc1 | > 100 | > 100 | > 100 | > 100 | > 100 | > 100 | > 100 | – | – | – | – | – | – | > 100 | – | – | – | – | – | –
N=C(N)c1ccc(-c2ccc(-c3cccs3)s2)s1 | 3.13 | 2.6 | – | – | 0.895 | – | 2.97 | 1500 | – | – | 302 | – | 1.58 | 3.42 | 1520 | 1060 | – | – | – | –
Nc1c(-c2ccccc2[N+](=O)[O-])nc2ccccn12 | – | > 100 | – | – | > 100 | > 100 | – | – | – | – | – | – | – | > 100 | – | – | > 100 | > 100 | > 100 | –
CC(=O)ON1C(=O)c2cccc3cccc(c23)C1=O | > 100 | > 100 | 79.3 | 39.8 | – | 57.3 | 40.2 | – | – | – | – | – | – | 45.5 | – | – | – | – | – | –
Cc1ccc(N2CCN(CCC(=O)O)CC2)cc1 | > 100 | > 100 | > 100 | > 100 | > 100 | > 100 | > 100 | – | – | – | – | – | – | – | – | – | – | – | – | –
COC(=O)C(C)(C)NC(=O)C(Cc1ccccc1)NC(=O)C(C)(C)NC(=O)OCc1ccccc1 (configuration not stated) (Cbz-[Aib]-[ξF]-[Aib]-OMe) | > 100 | – | – | > 100 | – | > 100 | > 100 | – | – | – | – | – | – | > 100 | – | – | – | – | – | –
Nc1nc2ccc(OCC(O)CN3CCCCC3)cc2[n+]([O-])n1 (configuration not stated) | > 100 | > 100 | – | > 100 | > 100 | – | > 100 | – | – | – | – | – | – | > 100 | – | – | – | – | – | –
Cc1ccc(C(O)(c2ccc(C)cc2)c2ccccn2)cc1 | – | – | – | – | – | > 100 | – | – | – | – | – | – | – | – | – | – | > 100 | > 100 | > 100 | > 100
CCCCOCc1cc(CN2CCN(C)CC2)c(O)c2ncccc12 | – | > 100 | – | – | 33.2 | > 100 | – | – | – | – | – | – | – | 13.8 | – | – | 73.7 | > 100 | 40.2 | > 100
COc1cc(Nc2nnc3n2S(=O)(=O)c2cc(C)c(Cl)cc2S3)cc(OC)c1 | 74.5 | 27 | 66.9 | > 100 | – | – | 44.2 | – | – | – | – | – | – | 49.7 | – | – | – | – | – | –
C(=N\OCCc1ccccc1)/c1cccnc1 | > 100 | > 100 | > 100 | > 100 | – | – | > 100 | – | – | – | – | – | – | > 100 | – | – | – | – | – | –
c1cncc(O[Si](Oc2cccnc2)(Oc2cccnc2)Oc2cccnc2)c1 | – | – | – | – | > 100 | > 100 | – | – | – | – | – | – | – | – | – | – | – | > 100 | > 100 | > 100
CC(C)(CCCCC(C)(C)C1NC(=O)N1)C1NC(=O)N1 | > 10 | – | > 10 | > 10 | – | > 10 | > 10 | – | – | – | – | – | – | > 10 | – | – | – | – | – | –

— PubChem BioAssay (NCI)
